This note sets out measurements from ChEMBL document CHEMBL1201862, “PubChem BioAssay data set” (2004).

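These data come from cells grown in 96-well plates and exposed to compound for 48 hours at five concentrations. Abbreviation: GI50, concentration required for 50% inhibition of growth.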 Active and inactive are the calls of the source. Rule as the data show it: active = GI50 up to about 1.1 µM and inactive = higher.

Among the test systems are A549; BT-549; CAKI-1; COLO 205; DU-145; EKVX; HCT-116; HCT-15; HL-60; HOP-92; IGROV-1; K562; M14; NCI-H23; NCI/ADR-RES; OVCAR-8; SK-MEL-28; SNB-19; SR; UO-31.
Common to all, as to assay: NCI tumour cell line growth inhibition, 48 h

Turning to `COc1ccc2nc3n(c2c1)C(=O)c1ccccc1-3`, the GI50 with A549 was > 100 µM (inactive); in the test with BT-549, > 10 µM (inactive); in the test with CAKI-1 it was > 100 µM (inactive); with COLO 205 it was > 100 µM (inactive); with DU-145, > 100 µM (inactive); in the test on EKVX it was > 100 µM (inactive). Also, the GI50 was > 100 µM (inactive) in the test on HCT-116; more than 100 µM in the test with HCT-15; > 100 µM (inactive) in the test on HL-60; > 100 µM (inactive) with HOP-92; > 100 µM (inactive) in the test with IGROV-1; > 100 µM (inactive) in the test on K562. For the same molecule, the GI50 with M14, in the test on NCI-H23, in the test with NCI/ADR-RES, in the test on OVCAR-8, in the test with SK-MEL-28 and with SNB-19 was > 100 µM (inactive) throughout. Also, the GI50 in the test on SR and in the test on UO-31 was > 100 µM (inactive) each time.
Take `COc1ccc(N2C(=O)C3c4[nH]c5ccc(OCc6ccccc6)cc5c4C4CCC(C(C)C)CC4C3C2=O)cc1` (stereo not given): the GI50 was 50.6 µM (inactive) with A549; 28.6 µM (inactive) with BT-549; > 30.7 µM (inactive) with CAKI-1; > 100 µM (inactive) in the test on COLO 205; > 100 µM (inactive) with DU-145; 11 µM (inactive) in the test with EKVX. Besides, the GI50 is > 45.8 µM (inactive) in the test with HCT-116; more than 100 µM in the test with HCT-15; 1.78 µM (inactive) in the test on HL-60; 32.1 µM (inactive) with HOP-92; > 39.6 µM (inactive) in the test on IGROV-1; 16.7 µM (inactive) in the test with K562. Besides, the GI50 in the test on M14 is > 48.6 µM (inactive); in the test with NCI-H23, 17.4 µM (inactive); with NCI/ADR-RES, 30.2 µM (inactive); in the test on OVCAR-8, 15.6 µM (inactive); with SK-MEL-28, > 100 µM (inactive); in the test with SNB-19, 9.33 µM (inactive). Besides, the GI50 is 4.41 µM (inactive) in the test with SR and > 57.1 µM (inactive) with UO-31.
`COC(=O)c1ccc(CCc2cc(O)ccc2O)cc1`: the GI50 in the test with A549 was 26.8 µM (inactive); with BT-549 it was 5.7 µM (inactive); with CAKI-1, 4.06 µM (inactive); in the test with COLO 205, 23.9 µM (inactive); in the test on DU-145 it was 32.4 µM (inactive); in the test on EKVX, 13.3 µM (inactive). The GI50 was 10.4 µM (inactive) with HCT-116; 8.79 µM in the test on HCT-15; 0.959 µM (active) with HL-60; 9.25 µM (inactive) in the test with HOP-92; 6.49 µM (inactive) in the test with IGROV-1; 2.15 µM (inactive) in the test on K562. For the same molecule, the GI50 is 10.6 µM (inactive) in the test with M14; 13.6 µM (inactive) in the test on NCI-H23; 12.8 µM (inactive) in the test on NCI/ADR-RES; 2.85 µM (inactive) with OVCAR-8; 16.6 µM (inactive) in the test on SK-MEL-28; 12 µM (inactive) in the test on SNB-19. Further, the GI50 is 2.44 µM (inactive) in the test on SR and 2.02 µM (inactive) with UO-31.
As for `CC1=NN(c2nc(N)nc(-c3cc4ccccc4oc3=N)n2)C(C)(C)C1`, the GI50 is 19.5 µM (inactive) in the test on A549; 26.7 µM (inactive) in the test with BT-549; 17.3 µM (inactive) in the test on CAKI-1; 17 µM (inactive) in the test with COLO 205; 20.9 µM (inactive) in the test with DU-145; 14.7 µM (inactive) in the test on EKVX. For the same molecule, the GI50 in the test on HCT-116 was 19.6 µM (inactive); with HCT-15 it was 16.1 µM; in the test with HL-60, 18.2 µM (inactive); with HOP-92, 22.9 µM (inactive); with IGROV-1, 15.3 µM (inactive); in the test with K562, 18.9 µM (inactive). Further, the GI50 in the test with M14 was 20.6 µM (inactive); in the test with NCI-H23 it was 16.1 µM (inactive); with NCI/ADR-RES, 22 µM (inactive); in the test on OVCAR-8 it was 26.1 µM (inactive); in the test with SK-MEL-28, 16.5 µM (inactive); in the test on SNB-19 it was 32.7 µM (inactive). The values for the GI50 in the test with SR and in the test with UO-31 were 19.6 µM (inactive) and 19.1 µM (inactive), respectively.
As to `CC(=O)/C(=C(/Br)I)c1ccccc1`, the GI50 in the test on A549 was 20 µM (inactive); in the test on BT-549 it was 1.97 µM (inactive); in the test with CAKI-1, 3.03 µM (inactive); with COLO 205, 13.6 µM (inactive); in the test with DU-145, 15.8 µM (inactive); with EKVX, 12.6 µM (inactive). Moreover, the GI50 in the test with HCT-116 is 4.52 µM (inactive); in the test on HCT-15 it was 4.32 µM; in the test on HL-60, 1.95 µM (inactive); in the test on HOP-92, 10.5 µM (inactive); in the test with IGROV-1, 10.9 µM (inactive); in the test on K562 it was 2.82 µM (inactive). Besides, the GI50 in the test on M14 was 6.87 µM (inactive); in the test with NCI-H23 it was 4.13 µM (inactive); in the test on NCI/ADR-RES, 9.35 µM (inactive); with OVCAR-8 it was 11.6 µM (inactive); in the test on SK-MEL-28, 11.2 µM (inactive); in the test with SNB-19 it was 17.3 µM (inactive). The results for the GI50 with SR and in the test with UO-31 were 1.94 µM (inactive) and 12.4 µM (inactive), respectively.
With `CCCCCCOP(=O)(OCCCCCC)OC(C(=O)OC)C(F)(F)F` (stereo not given), the GI50 in the test with A549, in the test with BT-549, in the test with CAKI-1, in the test with COLO 205, in the test on DU-145 and with EKVX was > 100 µM (inactive) in each case. Also, the GI50 with HCT-116 is > 100 µM (inactive); in the test on HCT-15 it was more than 100 µM; in the test with HL-60 it was > 100 µM (inactive); in the test on HOP-92, > 100 µM (inactive); in the test with IGROV-1, > 100 µM (inactive); in the test with K562 it was > 100 µM (inactive). Further, the GI50 with M14, in the test on NCI-H23, in the test with NCI/ADR-RES, in the test on OVCAR-8, with SK-MEL-28 and in the test with SNB-19 was > 100 µM (inactive) each time. In addition, the GI50 in the test with SR and with UO-31 was > 100 µM (inactive) in each case.
On to `CCOC(=O)C1=C(C)N(c2ccc(Cl)cc2)C2(O)C=CC(=O)C3C(=O)N(c4ccccc4)C(=O)C132` (stereo not given), for which the GI50 with A549 was 2.83 µM (inactive); with BT-549, 2.25 µM (inactive); in the test on CAKI-1, 1.87 µM (inactive); in the test on COLO 205, 1.67 µM (inactive); with DU-145, 1.87 µM (inactive); in the test on EKVX, 1.91 µM (inactive). The GI50 was 1.44 µM (inactive) in the test with HCT-116; 1.82 µM with HCT-15; 2.76 µM (inactive) with HL-60; 0.0649 µM (active) in the test on HOP-92; 1.54 µM (inactive) in the test with IGROV-1; 3.08 µM (inactive) in the test on K562. In addition, the GI50 is 1.66 µM (inactive) in the test with M14; 1.93 µM (inactive) in the test with NCI-H23; 2.36 µM (inactive) with NCI/ADR-RES; 2.12 µM (inactive) in the test on OVCAR-8; 1.51 µM (inactive) in the test on SK-MEL-28; 2.18 µM (inactive) in the test with SNB-19. Besides, the GI50 in the test on SR is 0.292 µM (active); in the test with UO-31 it was 1.6 µM (inactive).
